Molecular target: T1, serotonin transporters (SERT) (Rattus norvegicus, UniProt P31652)
T1 construct: expressed in transfected cells; host or cells: LLC-PK1 (LLC-SERT)
Assay: In vitro binding assay, LLC-SERT membrane homogenates, [^125I]IDAM
Conditions: 0.2 nM [^125I]IDAM, LLC-SERT membranes; read-out: Ki (SERT binding affinity) (converted)
Protocol: The membrane homogenates of serotonin transporters (LLC-SERT, which were expressed in a common parental cell line LLC-PK1) were prepared and used for the binding assays. Competitive binding assays were performed in a final volume of 0.25 mL. […] Nonspecific binding was defined with 10 μM citalopram. Incubation was carried out for 60 min at room temperature and the bound ligand was collected on glass fiber filters presoaked with 1% polyethylenimine (SIGMA, St. Louis, MO) and counted in a gamma counter (Wizard^2, Perkin Elmer).

T1 sequence (P31652 whole entry): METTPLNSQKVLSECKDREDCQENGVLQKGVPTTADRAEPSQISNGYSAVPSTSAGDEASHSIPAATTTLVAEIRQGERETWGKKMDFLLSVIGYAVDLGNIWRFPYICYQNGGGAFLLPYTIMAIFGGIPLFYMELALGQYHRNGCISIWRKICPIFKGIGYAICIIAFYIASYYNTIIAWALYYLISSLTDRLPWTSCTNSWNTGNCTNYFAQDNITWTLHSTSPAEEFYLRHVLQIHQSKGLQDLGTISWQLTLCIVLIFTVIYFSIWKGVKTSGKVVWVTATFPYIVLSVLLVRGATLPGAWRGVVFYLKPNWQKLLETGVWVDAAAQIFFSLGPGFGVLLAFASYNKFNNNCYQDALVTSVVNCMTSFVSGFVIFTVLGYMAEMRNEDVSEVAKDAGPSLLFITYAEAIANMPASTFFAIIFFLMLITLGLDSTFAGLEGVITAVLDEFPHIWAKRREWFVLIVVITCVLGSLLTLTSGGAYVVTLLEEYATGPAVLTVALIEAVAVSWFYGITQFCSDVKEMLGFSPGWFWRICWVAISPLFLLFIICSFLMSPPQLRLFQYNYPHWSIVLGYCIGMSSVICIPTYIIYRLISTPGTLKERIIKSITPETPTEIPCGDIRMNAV

Ki | SMILES
0.14 ± 0.06 nM | [2H]C([2H])(F)C([2H])([2H])C([2H])([2H])Oc1ccc(Sc2ccccc2N)c(CN(C)C)c1 (single isomer, unassigned) [III-4-2]
0.03 nM | CN(C)Cc1cc(O)ccc1Sc1ccc(Cl)cc1N [III-4-17]
0.02 nM | CN(C)Cc1cc(O)ccc1Sc1ccc(Br)cc1N [III-4-18]
0.22 nM | CN(C)Cc1cc(O)ccc1Sc1ccc(F)cc1N [III-4-19]

The next lines start with the compound.

SMILES | Ki
CN(C)Cc1cc(OCCCF)ccc1Sc1ccc(F)cc1N | 0.022 ± 0.016 nM
[2H]C([2H])([2H])N(Cc1cc(OCCCF)ccc1Sc1ccccc1N)C([2H])([2H])[2H] (single isomer, unassigned) [III-2] | 0.032 ± 0.013 nM
[2H]C([2H])([2H])N(Cc1cc(OC([2H])([2H])C([2H])([2H])C([2H])([2H])F)ccc1Sc1ccccc1N)C([2H])([2H])[2H] (single isomer, unassigned) [III-3 (FPBM- D12)] | 0.086 ± 0.029 nM
CN(C)Cc1cc(OCCCF)ccc1Sc1ccccc1N [III-1 (FPBM), reference compound] | 0.052 ± 0.007 nM
CN(C)Cc1cc(O)ccc1Sc1ccccc1N [III-1-1] | 1.21 ± 0.15 nM
[2H]C([2H])([2H])N(Cc1cc(O)ccc1Sc1ccccc1N)C([2H])([2H])[2H] [III-2-4] | 2.02 ± 0.54 nM

— US12544463B2, “Deuterium substituted positron emission tomography (PET) imaging agents and their pharmacological application” (Five Eleven Pharma Inc., priority 2017, dated 2026)
